According to patent publication US11207431B2, “HDAC6 inhibitors and imaging agents” (The General Hospital Corporation, priority 2017, dated 2021):
Each block holds one compound with its values, some of them ahead of it.

Columns and labels:
[1] = tested on: Human iPSC-derived neural progenitor cells; test: Acetylation level assay (Western blot); assay type: cell-based; settings: 6 h at 37° C.; for amount of cellular acetyl-α-Tubulin: other compounds 10 μM; for Histone acetylation (H3K9 and H4K12): 10 μM
[2] = Brain penetrance comparison; settings: in vivo
PET/CT imaging in rats = assay type: in vivo, Sprague-Dawley rats
Method: 8 male Sprague-Dawley rats (Charles River Laboratories) were used for PET imaging. […] For intravenous administration, a catheter with an extension line was placed in a lateral tail vein. Each animal received a bolus injection of either vehicle (1:1:8 DMSO/Tween80/saline) or blocking agent in solution (1 mg/kg, 1 mg/mL in 1:1:8 DMSO/Tween80/saline) immediately prior to injection of the radiotracer.
After injection of a radiotracer bolus ([…] Example 2) a 90 min dynamic PET scan was acquired in pairs for all animals. PET scans were performed on a GammaMedica Triumph PET/CT/SPECT scanner, corrected for attenuation with a μ-map derived from the corresponding CT image, which was acquired immediately following the PET scan. The dynamic PET data was binned into 38 timeframes (8×15 s, 8×1 min, 10×2 min, 12×5) and reconstructed individually via an iterative MLEM (maximum likelihood expectation maximization) algorithm in 16 iterations.
PET images were to the CT image acquired from the same animal using AMIDE Data sets were cropped and all further image analysis was conducted using PMOD 3.3 (PMOD Technologies, Zurich, Switzerland). For maximum consistency, the data were coregistered to the Schiffer Px Rat rat brain template and data was derived from a whole brain VOI (volumes of interest) for time activity curves.

HDAC6 [3] = molecular target: T1, HDAC6 (Homo sapiens (Human), UniProt Q9UBN7); test: IC50 assay by Nanosyn (Caliper microfluidics mobility shift detection); assay type: biochemical
T1 sequence (Q9UBN7 whole entry): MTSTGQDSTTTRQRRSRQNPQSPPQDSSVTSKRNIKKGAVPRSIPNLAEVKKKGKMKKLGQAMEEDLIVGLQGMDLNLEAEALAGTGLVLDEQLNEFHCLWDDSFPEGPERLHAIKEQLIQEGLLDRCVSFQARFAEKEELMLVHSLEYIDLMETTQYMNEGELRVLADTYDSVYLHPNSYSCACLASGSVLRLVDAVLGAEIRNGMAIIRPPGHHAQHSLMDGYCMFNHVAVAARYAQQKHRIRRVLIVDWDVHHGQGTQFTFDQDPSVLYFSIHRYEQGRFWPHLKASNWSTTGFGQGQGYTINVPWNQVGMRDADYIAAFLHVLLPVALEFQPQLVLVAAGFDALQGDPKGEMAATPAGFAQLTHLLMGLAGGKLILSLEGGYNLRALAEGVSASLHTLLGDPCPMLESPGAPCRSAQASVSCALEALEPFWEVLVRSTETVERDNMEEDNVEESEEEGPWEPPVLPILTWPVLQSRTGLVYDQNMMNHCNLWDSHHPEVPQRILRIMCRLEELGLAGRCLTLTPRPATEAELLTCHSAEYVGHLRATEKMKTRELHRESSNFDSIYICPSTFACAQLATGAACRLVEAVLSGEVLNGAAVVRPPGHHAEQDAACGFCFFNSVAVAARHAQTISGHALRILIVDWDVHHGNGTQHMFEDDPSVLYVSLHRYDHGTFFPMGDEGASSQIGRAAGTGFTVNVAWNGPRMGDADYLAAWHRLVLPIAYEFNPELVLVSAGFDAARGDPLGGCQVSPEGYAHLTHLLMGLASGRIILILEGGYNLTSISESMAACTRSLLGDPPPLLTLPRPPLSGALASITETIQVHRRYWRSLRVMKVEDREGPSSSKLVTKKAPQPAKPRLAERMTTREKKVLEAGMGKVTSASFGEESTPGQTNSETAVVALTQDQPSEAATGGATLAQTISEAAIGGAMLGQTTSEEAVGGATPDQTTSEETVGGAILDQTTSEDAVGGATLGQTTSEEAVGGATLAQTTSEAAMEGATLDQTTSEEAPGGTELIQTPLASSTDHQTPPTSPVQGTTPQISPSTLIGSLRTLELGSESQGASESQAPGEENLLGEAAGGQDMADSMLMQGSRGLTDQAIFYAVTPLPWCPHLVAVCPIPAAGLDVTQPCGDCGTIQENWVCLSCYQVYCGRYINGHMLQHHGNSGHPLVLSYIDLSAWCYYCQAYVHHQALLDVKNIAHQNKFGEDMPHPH

HDAC1 [4] = molecular target: T2, HDAC1 (Homo sapiens (Human), UniProt Q13547); test: IC50 assay, BPS Biosciences fluorescence assay; assay type: biochemical; settings: BPS Biosciences fluorescence assay
HDAC4 [5] = molecular target: T3, HDAC4 (Homo sapiens (Human), UniProt P56524); test: IC50 assay by Nanosyn (Caliper microfluidics mobility shift detection); assay type: biochemical; settings: IC50 measured by Nanosyn
T3 sequence (P56524 whole entry): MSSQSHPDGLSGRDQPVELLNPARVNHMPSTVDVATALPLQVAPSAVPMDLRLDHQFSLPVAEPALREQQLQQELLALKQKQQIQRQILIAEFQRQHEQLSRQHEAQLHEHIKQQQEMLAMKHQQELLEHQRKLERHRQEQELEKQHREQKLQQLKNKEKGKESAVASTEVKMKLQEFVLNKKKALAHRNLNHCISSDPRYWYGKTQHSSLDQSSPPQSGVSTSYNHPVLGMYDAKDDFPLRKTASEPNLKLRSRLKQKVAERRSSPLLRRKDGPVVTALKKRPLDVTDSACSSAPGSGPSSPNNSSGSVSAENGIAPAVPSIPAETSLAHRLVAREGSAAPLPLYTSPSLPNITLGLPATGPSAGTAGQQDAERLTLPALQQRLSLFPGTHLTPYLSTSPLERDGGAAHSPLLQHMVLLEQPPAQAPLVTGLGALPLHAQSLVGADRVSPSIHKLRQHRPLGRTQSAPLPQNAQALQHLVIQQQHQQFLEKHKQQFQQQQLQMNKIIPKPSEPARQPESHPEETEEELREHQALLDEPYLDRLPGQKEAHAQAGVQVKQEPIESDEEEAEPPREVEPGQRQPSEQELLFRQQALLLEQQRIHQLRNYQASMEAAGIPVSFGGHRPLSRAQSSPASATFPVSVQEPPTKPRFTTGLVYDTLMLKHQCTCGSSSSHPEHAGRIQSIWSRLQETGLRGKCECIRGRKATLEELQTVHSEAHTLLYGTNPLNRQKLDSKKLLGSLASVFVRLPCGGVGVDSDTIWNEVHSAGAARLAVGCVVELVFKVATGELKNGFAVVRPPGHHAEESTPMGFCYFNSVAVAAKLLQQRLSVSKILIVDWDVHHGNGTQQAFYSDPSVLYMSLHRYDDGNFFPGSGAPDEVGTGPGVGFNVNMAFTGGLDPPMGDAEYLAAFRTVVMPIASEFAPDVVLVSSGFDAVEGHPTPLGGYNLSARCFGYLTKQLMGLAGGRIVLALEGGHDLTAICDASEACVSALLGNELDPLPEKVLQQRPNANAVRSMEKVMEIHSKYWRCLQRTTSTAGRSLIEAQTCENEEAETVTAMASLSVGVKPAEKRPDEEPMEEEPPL

HDAC3 [6] = molecular target: T4, HDAC3 (Homo sapiens (Human), UniProt O15379); test: as above; assay type: biochemical; settings: IC50 measured by Nanosyn
T4 sequence (O15379 whole entry): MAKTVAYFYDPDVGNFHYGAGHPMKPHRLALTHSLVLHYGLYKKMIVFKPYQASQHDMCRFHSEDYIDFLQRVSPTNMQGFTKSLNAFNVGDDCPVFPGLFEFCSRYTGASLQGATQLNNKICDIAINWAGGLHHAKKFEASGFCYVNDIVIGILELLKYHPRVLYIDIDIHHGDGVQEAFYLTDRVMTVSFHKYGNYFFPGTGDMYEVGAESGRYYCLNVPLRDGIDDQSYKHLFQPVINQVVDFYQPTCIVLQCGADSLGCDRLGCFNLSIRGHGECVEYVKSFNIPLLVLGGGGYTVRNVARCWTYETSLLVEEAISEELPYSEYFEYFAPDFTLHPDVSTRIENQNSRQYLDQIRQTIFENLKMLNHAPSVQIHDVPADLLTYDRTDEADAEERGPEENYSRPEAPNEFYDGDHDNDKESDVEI
T4 sequence (Q9Y618 395-489 partner): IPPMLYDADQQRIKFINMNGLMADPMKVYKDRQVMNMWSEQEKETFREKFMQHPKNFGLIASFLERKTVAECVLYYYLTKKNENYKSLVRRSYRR
Method: (§1) IC50 measurements were conducted by BPS Biosciences (Table 1) or by Nanosyn (Table 1A) with an established fluorescence assay. […] A=Martinostat (Caliper (microfluidics mobility shift detection) by Nanosyn (same run, duplicates));

HDAC10 [7] = molecular target: T5, HDAC10 (Homo sapiens (Human), UniProt Q969S8); test: as above; assay type: biochemical; settings: IC50 measured by Nanosyn
Method: as §1

HDAC1 [8] = molecular target: T2, HDAC1; test: as above; assay type: biochemical; settings: IC50 measured by Nanosyn
Method: as §1

HDAC2 [9] = molecular target: T6, HDAC2 (Homo sapiens (Human), UniProt Q92769); test: as above; assay type: biochemical; settings: IC50 measured by Nanosyn
T6 sequence (Q92769 whole entry): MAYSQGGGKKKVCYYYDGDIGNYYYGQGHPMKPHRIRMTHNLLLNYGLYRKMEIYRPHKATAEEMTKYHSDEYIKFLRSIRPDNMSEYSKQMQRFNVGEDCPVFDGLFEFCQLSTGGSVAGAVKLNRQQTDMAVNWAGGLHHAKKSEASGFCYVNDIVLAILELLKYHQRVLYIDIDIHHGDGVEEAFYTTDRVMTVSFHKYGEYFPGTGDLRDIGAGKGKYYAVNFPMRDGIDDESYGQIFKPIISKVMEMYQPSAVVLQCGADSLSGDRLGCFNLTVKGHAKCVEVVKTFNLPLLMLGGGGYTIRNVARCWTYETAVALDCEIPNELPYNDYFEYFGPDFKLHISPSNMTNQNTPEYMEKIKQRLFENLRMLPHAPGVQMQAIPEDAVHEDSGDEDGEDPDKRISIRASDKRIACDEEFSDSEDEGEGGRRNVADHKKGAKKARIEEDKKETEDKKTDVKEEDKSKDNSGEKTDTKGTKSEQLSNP
Method: as §1

HDAC6 [10] = molecular target: T1, HDAC6; test: IC50 assay, BPS Biosciences fluorescence assay; assay type: biochemical
HDAC8 [11] = molecular target: T7, HDAC8 (Homo sapiens (Human), UniProt Q9BY41); test: IC50 assay by Nanosyn (Caliper microfluidics mobility shift detection); assay type: biochemical; settings: IC50 measured by Nanosyn
T7 sequence (Q9BY41 whole entry): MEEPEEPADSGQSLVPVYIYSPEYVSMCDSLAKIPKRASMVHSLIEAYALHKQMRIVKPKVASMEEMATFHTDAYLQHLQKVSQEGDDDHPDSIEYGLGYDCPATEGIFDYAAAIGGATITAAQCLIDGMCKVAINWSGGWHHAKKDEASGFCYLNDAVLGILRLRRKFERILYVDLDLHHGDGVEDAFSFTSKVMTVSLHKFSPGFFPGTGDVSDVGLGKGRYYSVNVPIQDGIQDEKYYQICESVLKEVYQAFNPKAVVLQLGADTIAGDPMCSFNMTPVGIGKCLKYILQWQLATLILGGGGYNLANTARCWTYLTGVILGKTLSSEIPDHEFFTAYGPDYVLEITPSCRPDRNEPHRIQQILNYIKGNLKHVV

HDAC7 [12] = molecular target: T8, HDAC7 (Homo sapiens (Human), UniProt Q8WUI4); test: IC50 assay, BPS Biosciences fluorescence assay; assay type: biochemical
HDAC8 [13] = molecular target: T7, HDAC8; test: IC50 assay, BPS Biosciences fluorescence assay; assay type: biochemical
HDAC2 [14] = molecular target: T6, HDAC2; test: IC50 assay, BPS Biosciences fluorescence assay; assay type: biochemical; settings: BPS Biosciences fluorescence assay
HDAC5 [15] = molecular target: T9, HDAC5 (Homo sapiens (Human), UniProt Q9UQL6); test: IC50 assay, BPS Biosciences fluorescence assay; assay type: biochemical
HDAC5 [16] = molecular target: T9, HDAC5; test: IC50 assay by Nanosyn (Caliper microfluidics mobility shift detection); assay type: biochemical; settings: IC50 measured by Nanosyn
HDAC11 [17] = molecular target: T10, HDAC11 (Homo sapiens (Human), UniProt Q96DB2); test: as above; assay type: biochemical; settings: IC50 measured by Nanosyn
T10 sequence (Q96DB2 whole entry): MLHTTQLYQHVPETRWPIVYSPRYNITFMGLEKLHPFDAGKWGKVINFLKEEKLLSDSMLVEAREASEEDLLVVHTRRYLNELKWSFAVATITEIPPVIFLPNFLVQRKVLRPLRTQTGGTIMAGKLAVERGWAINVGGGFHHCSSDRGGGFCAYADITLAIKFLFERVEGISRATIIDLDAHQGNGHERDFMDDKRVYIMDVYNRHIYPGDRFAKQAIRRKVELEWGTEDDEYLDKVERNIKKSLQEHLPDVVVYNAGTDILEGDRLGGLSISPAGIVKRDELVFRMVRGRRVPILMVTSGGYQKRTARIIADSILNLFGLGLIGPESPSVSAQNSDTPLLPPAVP

HDAC4 [18] = molecular target: T3, HDAC4; test: IC50 assay, BPS Biosciences fluorescence assay; assay type: biochemical
HDAC3 [19] = molecular target: T4, HDAC3; test: IC50 assay, BPS Biosciences fluorescence assay; assay type: biochemical; settings: BPS Biosciences fluorescence assay
HDAC9 [20] = molecular target: T11, HDAC9 (Homo sapiens (Human), UniProt Q9UKV0); test: IC50 assay by Nanosyn (Caliper microfluidics mobility shift detection); assay type: biochemical; settings: IC50 measured by Nanosyn
T11 sequence (Q9UKV0 whole entry): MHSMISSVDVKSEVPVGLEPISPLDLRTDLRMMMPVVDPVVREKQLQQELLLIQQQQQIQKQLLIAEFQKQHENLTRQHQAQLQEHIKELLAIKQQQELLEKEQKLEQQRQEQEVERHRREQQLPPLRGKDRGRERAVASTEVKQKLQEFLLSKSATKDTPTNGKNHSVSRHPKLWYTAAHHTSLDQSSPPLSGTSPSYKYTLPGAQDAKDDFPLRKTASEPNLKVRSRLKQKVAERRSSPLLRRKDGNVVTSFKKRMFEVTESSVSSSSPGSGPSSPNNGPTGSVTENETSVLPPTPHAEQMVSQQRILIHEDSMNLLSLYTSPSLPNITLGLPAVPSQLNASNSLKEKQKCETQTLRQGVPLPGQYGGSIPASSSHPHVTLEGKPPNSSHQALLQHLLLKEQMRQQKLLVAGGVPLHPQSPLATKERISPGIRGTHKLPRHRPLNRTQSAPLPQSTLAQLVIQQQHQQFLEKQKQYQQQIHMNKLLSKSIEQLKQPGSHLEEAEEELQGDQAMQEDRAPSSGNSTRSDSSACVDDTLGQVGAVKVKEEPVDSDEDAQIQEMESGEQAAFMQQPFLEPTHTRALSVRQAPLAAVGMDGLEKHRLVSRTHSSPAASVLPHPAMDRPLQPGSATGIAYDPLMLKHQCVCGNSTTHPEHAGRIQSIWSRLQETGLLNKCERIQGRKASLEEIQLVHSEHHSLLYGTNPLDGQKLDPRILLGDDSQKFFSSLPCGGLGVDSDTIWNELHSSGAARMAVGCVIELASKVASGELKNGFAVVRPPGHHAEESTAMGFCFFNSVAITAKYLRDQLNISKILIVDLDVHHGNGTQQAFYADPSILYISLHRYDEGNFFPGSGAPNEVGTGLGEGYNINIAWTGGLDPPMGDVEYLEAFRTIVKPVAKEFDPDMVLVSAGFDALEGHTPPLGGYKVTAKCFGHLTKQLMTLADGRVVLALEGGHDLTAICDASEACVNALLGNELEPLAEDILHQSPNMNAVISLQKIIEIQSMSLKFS

HDAC7 [21] = molecular target: T8, HDAC7; test: as above; assay type: biochemical; settings: IC50 measured by Nanosyn
HDAC10 [22] = molecular target: T5, HDAC10; test: IC50 assay, BPS Biosciences fluorescence assay; assay type: biochemical; settings: BPS Biosciences fluorescence assay
HDAC11 [23] = molecular target: T10, HDAC11; test: IC50 assay, BPS Biosciences fluorescence assay; assay type: biochemical
HDAC9 [24] = molecular target: T11, HDAC9; test: IC50 assay, BPS Biosciences fluorescence assay; assay type: biochemical
HDAC6 [25] = molecular target: HDAC6 (Rattus norvegicus (Rat), UniProt A0A8I6GM68); test: Autoradiography competition with radiolabeled Example 2 on rat brain slices; assay type: binding, Sprague-Dawley rat; settings: Tubastatin A at 100 μM
Method: Sagittal slices of Sprague-Dawley rat brains were sectioned (10 μm) with a cryostat (Thermo Scientific HM550) and mounted onto ColorFrost Plus microscope slides (Fisher Scientific 12-550-18) and stored at −20° C. […] After 15 min, 50 μCi of the radiolabeled compound of Example 2 was added to each bath. After 15 minutes, all slides were washed by dipping 10× into buffer and subsequently submerged in 50 mL baths of buffer at 4° C. for 5 minutes. The slides were dried at 35° C. in a vacuum chamber. A phosphorus screen (Perkin Elmer 7001723) was exposed with the slides for 45 minutes and subsequently imaged with a Cyclone Plus Storage Phosphor (Perkin Elmer) detector. ImageJ was used to apply a Gaussian blur (3.0 radius) smoothing and a lookup table (Royal) with equivalent thresholds for brightness was applied. Raw intensity values from gray and white matter were quantified with the ImageJ measurement tool.

[26] = BPS Biosciences fluorescence assay

SMILES: O=C(CCCCCCNC(=O)c1cnc(N(c2ccccc2)c2ccccc2)nc1)NO [ACY-1215, ricolinostat]
acetylation of H4K12 ([1]; ACY1215 5 μM): significantly increased
amount of cellular acetyl-α-Tubulin ([1]; ACY1215 5 μM): increased
Brain-penetrant? [2]: −

SMILES: CC(=O)Nc1ccc(C(=O)Nc2ccccc2N)cc1 [CI-994, tacedinaline]
Histone acetylation (H3K9 and H4K12) [1]: significantly increased
amount of cellular acetyl-α-Tubulin ([1]; ACY1215 5 μM): did not increase

SMILES: CN(Cc1ccc(C(=O)NO)cc1[18F])CC12CC3CC(CC(C3)C1)C2 [Example 2, 4-((((Adamantan-1-yl)methyl)(methyl)amino)methyl)-3-[^18F]fluoro-N-hydroxybenzamide]
brain uptake and retention (PET/CT imaging in rats; radiotracer, PET): excellent
off-rate in preclinical PET (PET/CT imaging in rats; rat, in vivo): slow

SMILES: O=C(NO)c1ccc(CNCC23CC4CC(CC(C4)C2)C3)cc1F [Example 8, 4-((((Adamantan-1-yl)methyl)amino)methyl)-2-fluoro-N-hydroxybenzamide]
IC50 (HDAC6 [3]; Nanosyn (Table 1A)): 89 nM

SMILES: O=C(NO)c1cc(F)c(CNCC23CC4CC(CC(C4)C2)C3)c(F)c1 [Example 9, 4-((((Adamantan-1-yl)methyl)amino)methyl)-3,5-difluoro-N-hydroxybenzamide]
IC50 (HDAC6 [3]; Nanosyn (Table 1A)): 13.6 nM

SMILES: O=C(NO)c1ccc(CNCC23CC4CC(CC(C4)C2)C3)c(C(F)(F)F)c1 [Example 10, 4-((((adamantan-1-yl)methyl)amino)methyl)-3-trifluoromethyl-N-hydroxybenzamide]
IC50 (HDAC6 [3]; Nanosyn (Table 1A)): 1020 nM

SMILES: Cc1cc(C(=O)NO)ccc1CNCC12CC3CC(CC(C3)C1)C2 [Example 11, 4-((((adamantan-1-yl)methyl)amino)methyl)-3-methyl-N-hydroxybenzamide]
IC50 (HDAC6 [3]; Nanosyn (Table 1A)): 574 nM

SMILES: CN(Cc1ccc(C(=O)NO)cc1)CC12CC3CC(CC(C3)C1)C2 [Example 12, 4-(((((3r,5r,7r)-adamantan-1-yl)methyl)(methyl)amino)methyl)-N-hydroxybenzamide]
IC50 (HDAC6 [3]; Nanosyn (Table 1A)): 81 nM

SMILES: O=C(NO)c1ccc(CNCC23CC4CC(CC(C4)C2)C3)nc1 [Example 13, 6-((((adamantan-1-yl)methyl)amino)methyl)-N-hydroxynicotinamide]
IC50 (HDAC6 [3]; Nanosyn (Table 1A)): 26.7 nM

SMILES: O=C(NO)c1ccc(CNCC23CC4CC(CC(C4)C2)C3)c(Cl)c1 [Example 14, 4-((((adamantan-1-yl)methyl)amino)methyl)-3-chloro-N-hydroxybenzamide]
IC50 (HDAC6 [3]; Nanosyn (Table 1A)): 74.8 nM

SMILES: O=C(NO)c1ccc(CNCC23CC4CC(CC(C4)C2)C3)c(Br)c1 [Example 15, 4-((((adamantan-1-yl)methyl)amino)methyl)-3-bromo-N-hydroxybenzamide]
IC50 (HDAC6 [3]; Nanosyn (Table 1A)): 59.9 nM

SMILES: O=C(NO)c1ccc(CNCC23CC4CC(CC(C4)C2)C3)c(F)c1 [Example 16, 4-(((((3r,5r,7r)-adamantan-1-yl)methyl)amino)methyl)-3-fluoro-N-hydroxybenzamide]
IC50 (HDAC6 [3]; Nanosyn (Table 1A)): 12 nM

SMILES: O=C(NO)c1ccc(CNCC23CC4CC(CC(C4)C2)C3)cc1 [Example 17, 4-(((((3r,5r,7r)-adamantan-1-yl)methyl)amino)methyl)-N-hydroxybenzamide]
IC50 (HDAC6 [3]; Nanosyn (Table 1A)): 35 nM

SMILES: O=C(NO)c1ccc(CNC23CC4CC(CC(C4)C2)C3)cc1 [Example 18, 4-((((3s,5s,7s)-adamantan-1-yl)amino)methyl)-N-hydroxybenzamide]
IC50 (HDAC6 [3]; Nanosyn (Table 1A)): 1380 nM

SMILES: CC1(C)C2CCC(CNCc3ccc(C(=O)NO)cc3)C1C2 (centres unmarked) [Example 23, 4-((((6,6-dimethylbicyclo[3.1.1]heptan-2-yl)methyl)amino)methyl)-N-hydroxybenzamide]
IC50 (HDAC6 [3]; Nanosyn (Table 1A)): 149 nM

More lines, main results first:

IC50 (HDAC6 [3]; Nanosyn (Table 1A)): 323 nM
SMILES: CC(CC12CC3CC(CC(C3)C1)C2)NCc1ccc(C(=O)NO)cc1 (centres unmarked) [Example 19, 4-(((1-(adamantan-1-yl)propan-2-yl)amino)methyl)-N-hydroxybenzamide]

IC50 (HDAC6 [3]; Nanosyn (Table 1A)): 213 nM
SMILES: CCC(NCc1ccc(C(=O)NO)cc1)C12CC3CC(CC(C3)C1)C2 (centres unmarked) [Example 21, 4-(((1-((3r,5r,7r)-adamantan-1-yl)propyl)amino)methyl)-N-hydroxybenzamide]

IC50 (HDAC6 [3]; Nanosyn (Table 1A)): 121 nM
SMILES: CCC(N(C)Cc1ccc(C(=O)NO)cc1)C12CC3CC(CC(C3)C1)C2 (centres unmarked) [Example 22, 4-(((1-((3r,5r,7r)-adamantan-1-yl)propyl)(methyl)amino)methyl)-N-hydroxybenzamide]

IC50 (HDAC6 [3]; Nanosyn (Table 1A)): 1190 nM
SMILES: CCCCCN(Cc1ccc(C(=O)NO)cc1)CC1CCC2CC1C2(C)C (centres unmarked) [Example 24, 4-((((6,6-dimethylbicyclo[3.1.1]heptan-2-yl)methyl)(pentyl)amino)methyl)-N-hydroxybenzamide]

IC50 (HDAC6 [3]; Nanosyn (Table 1A)): 84 nM
SMILES: O=C(NO)c1ccc(CNCC2CCCCC2)cc1 [Example 25, 4-(((cyclohexylmethyl)amino)methyl)-N-hydroxybenzamide]

IC50 (HDAC1 [4]): 6.2 nM
IC50 (HDAC4 [5]): 240 nM
IC50 (HDAC3 [6]): 0.3 nM
IC50 (HDAC10 [7]): 2 nM
IC50 (HDAC1 [8]): 1.2 nM
IC50 (HDAC2 [9]): 4 nM
IC50 (HDAC6 [10]): 48 nM
IC50 (HDAC8 [11]): 750 nM
IC50 (HDAC7 [12]): > 1000 nM
IC50 (HDAC8 [13]): > 1000 nM
IC50 (HDAC2 [14]): 22 nM
IC50 (HDAC6 [3]; IC50 measured by Nanosyn): 1.8 nM
IC50 (HDAC5 [15]): 980 nM
IC50 (HDAC5 [16]): 75 nM
IC50 (HDAC11 [17]): > 1000 nM
IC50 (HDAC4 [18]; [26]): > 1000 nM
inhibition at 1 µM (HDAC4 [18]; at 1 μM, BPS Biosciences, read-out: HDAC4 Percentage Inhibition): 39%
IC50 (HDAC3 [19]): 7.1 nM
IC50 (HDAC9 [20]): > 1000 nM
IC50 (HDAC7 [21]): > 1000 nM
IC50 (HDAC10 [22]): 8.9 nM
IC50 (HDAC11 [23]; [26]): > 1000 nM
inhibition at 1 µM (HDAC11 [23]; at 1 μM, BPS Biosciences, read-out: HDAC11 Percentage Inhibition): 17%
IC50 (HDAC9 [24]; [26]): > 1000 nM
inhibition at 1 µM (HDAC9 [24]; at 1 μM, BPS Biosciences, read-out: HDAC9 Percentage Inhibition): 12%
SMILES: CN(Cc1ccc(/C=C/C(=O)NO)cc1)CC12CC3CC(CC(C3)C1)C2 [Martinostat, martinostat]

Brain-penetrant? [2]: +/−
SMILES: CN1CCc2c(c3ccccc3n2Cc2ccc(C(=O)NO)cc2)C1 [Tubastatin A]
Histone acetylation (H3K9 and H4K12) [1]: remained unaltered
amount of cellular acetyl-α-Tubulin ([1]; ACY1215 5 μM): increased
amount of bound radioactivity (radiolabeled Example 2) on rat brain slices (HDAC6 [25]): reduce the amount of bound radioactivity to the same background as 10 μM Example 1
